Source: patent US20260262643A1, “HERBICIDAL BENZOXAZINES” (FMC CORPORATION, priority 2022, published 2026)

Experiments:
galium = assay: Test A postemergence; type: in vivo, Galium aparine; details: postemergence, 10 days
Summary of the method: (§1)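 Visual injury ratings on a 0–100 scale (100 = complete control) versus untreated controls, taken 10 days after treatment in greenhouse. Preemergence: directed soil spray onto seeded loam/sand. Postemergence: foliar application at one- to two-leaf stage, plants 2–10 cm. Formulation: non-phytotoxic solvent plus surfactant.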

goosegrass [1] = assay: Test A preemergence; type: in vivo, Eleusine indica
Summary of the method: as §1

foxtail, giant [2] = assay: Test A postemergence; type: in vivo, Setaria faberi; details: postemergence, 10 days
Summary of the method: as §1

barnyardgrass = assay: Test B flooded paddy test; type: in vivo, Echinochloa crus-galli; details: 250 g ai/ha, Flood, 13 days, 0 to 100 scale (0 no effect, 100 complete control)
Summary of the method: (§2)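 Each species was raised to the 2-leaf stage. At treatment, each pot received floodwater 3 cm deep, with the chemical delivered into the water. Greenhouse holding followed for 13 days, then percent control was estimated visually versus untreated pots.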

ryegrass, Italian [3] = assay: Test A preemergence; type: in vivo, Lolium multiflorum
Summary of the method: as §1

oat, wild [4] = assay: Test A postemergence; type: in vivo, Avena fatua; details: postemergence, 10 days
Summary of the method: as §1

wheat [5] = assay: Test A preemergence; type: in vivo, Triticum aestivum
Summary of the method: as §1

pigweed, palmer [6] = assay: Test A postemergence; type: in vivo, Amaranthus palmeri; details: postemergence, 10 days
Summary of the method: as §1

ducksalad = assay: Test B flooded paddy test; type: in vivo, Heteranthera limosa; details: 250 g ai/ha, Flood, 13 days, 0 to 100 scale (0 no effect, 100 complete control)
Summary of the method: as §2

ryegrass, Italian [7] = assay: Test A postemergence; type: in vivo, Lolium multiflorum; details: postemergence, 10 days
Summary of the method: as §1

wheat [8] = assay: Test A postemergence; type: in vivo, Triticum aestivum; details: postemergence, 10 days
Summary of the method: as §1

corn [9] = assay: Test A postemergence; type: in vivo, Zea mays; details: postemergence, 10 days
Summary of the method: as §1

soybean [10] = assay: Test A postemergence; type: in vivo, Glycine max; details: postemergence, 10 days
Summary of the method: as §1

goosegrass [11] = assay: Test A postemergence; type: in vivo, Eleusine indica; details: postemergence, 10 days
Summary of the method: as §1

oat, wild [12] = assay: Test A preemergence; type: in vivo, Avena fatua
Summary of the method: as §1

horseweed = assay: Test A postemergence; type: in vivo, Erigeron canadensis; details: postemergence, 10 days
Summary of the method: as §1

pigweed, palmer [13] = assay: Test A preemergence; type: in vivo, Amaranthus palmeri
Summary of the method: as §1

rice = assay: Test B flooded paddy test; type: in vivo, Oryza sativa; details: 250 g ai/ha, Flood, 13 days, 0 to 100 scale (0 no effect, 100 complete control)
Summary of the method: as §2

blackgrass [14] = assay: Test A preemergence; type: in vivo, Alopecurus myosuroides
Summary of the method: as §1

sedge, umbrella = assay: Test B flooded paddy test; type: in vivo, Cyperus difformis; details: 250 g ai/ha, Flood, 13 days, 0 to 100 scale (0 no effect, 100 complete control)
Summary of the method: as §2

soybean [15] = assay: Test A preemergence; type: in vivo, Glycine max
Summary of the method: as §1

ragweed [16] = assay: Test A postemergence; type: in vivo, Ambrosia artemisiifolia; details: postemergence, 10 days
Summary of the method: as §1

corn [17] = assay: Test A preemergence; type: in vivo, Zea mays
Summary of the method: as §1

kochia [18] = assay: Test A preemergence; type: in vivo, Bassia scoparia
Summary of the method: as §1

blackgrass [19] = assay: Test A postemergence; type: in vivo, Alopecurus myosuroides; details: postemergence, 10 days
Summary of the method: as §1

foxtail, giant [20] = assay: Test A preemergence; type: in vivo, Setaria faberi
Summary of the method: as §1

ragweed [21] = assay: Test A preemergence; type: in vivo, Ambrosia artemisiifolia
Summary of the method: as §1

kochia [22] = assay: Test A postemergence; type: in vivo, Bassia scoparia; details: postemergence, 10 days
Summary of the method: as §1

[23] = 125 g ai/ha, 0 to 100 scale, 0 no effect, 100 complete control
[24] = 500 g ai/ha, visual injury, 0 to 100 scale (0 no effect, 100 complete control)
[25] = 125 g ai/ha, visual injury after 10 days, 0 to 100 scale, 0 is no effect, 100 is complete control
[26] = 500 g ai/ha, 0 to 100 scale (0 no effect, 100 complete control), 10 days

## CCc1ccc(-n2cnc(C3CCC3)n2)cc1C(=O)N1C[C@H](C)Oc2c(Cl)cccc21 [Compound 104]
galium; [23]
  Galium plant response rating: 60
galium; [24]
  Plant response rating, Galium: 100
Goosegrass [1]; [25]
  Plant response rating, Goosegrass: 100
Goosegrass [1]; [26]
  Plant response rating, Goosegrass: 100
foxtail, giant [2]; [23]
  Foxtail, Giant plant response rating: 90
foxtail, giant [2]; [24]
  Plant response rating, Foxtail, Giant: 90
barnyardgrass
  Plant response rating, Barnyardgrass: 60
ryegrass, Italian [3]; [25]
  Plant response rating, Ryegrass, Italian: 50
ryegrass, Italian [3]; [26]
  Plant response rating, Ryegrass, Italian: 90
oat, wild [4]; [23]
  Oat, Wild plant response rating: 20
oat, wild [4]; [24]
  Plant response rating, Oat, Wild: 40
Wheat [5]; [25]
  Plant response rating, Wheat: 0
Wheat [5]; [26]
  Plant response rating, Wheat: 0
pigweed, palmer [6]; [23]
  Pigweed, Palmer plant response rating: 80
pigweed, palmer [6]; [24]
  Plant response rating, Pigweed, Palmer: 100
ducksalad
  Plant response rating, Ducksalad: 25
ryegrass, Italian [7]; [23]
  Ryegrass, Italian plant response rating: 30
ryegrass, Italian [7]; [24]
  Plant response rating, Ryegrass, Italian: 60
Wheat [8]; [23]
  Wheat plant response rating: 10
Wheat [8]; [24]
  Plant response rating, Wheat: 10
Corn [9]; [23]
  Corn plant response rating: 40
Corn [9]; [24]
  Plant response rating, Corn: 80
Soybean [10]; [23]
  Soybean plant response rating: 100
Soybean [10]; [24]
  Plant response rating, Soybean: 100
Goosegrass [11]; [23]
  Goosegrass plant response rating: 50
Goosegrass [11]; [24]
  Plant response rating, Goosegrass: 80
oat, wild [12]; [25]
  Plant response rating, Oat, Wild: 0
oat, wild [12]; [26]
  Plant response rating, Oat, Wild: 70
horseweed; [23]
  Horseweed plant response rating: 0
horseweed; [24]
  Plant response rating, Horseweed: 0
pigweed, palmer [13]; [25]
  Plant response rating, Pigweed, Palmer: 90
pigweed, palmer [13]; [26]
  Plant response rating, Pigweed, Palmer: 100
rice
  Plant response rating, Rice: 20
Blackgrass [14]; [25]
  Plant response rating, Blackgrass: 30
Blackgrass [14]; [26]
  Plant response rating, Blackgrass: 40
sedge, umbrella
  Plant response rating, Sedge, Umbrella: 98
Soybean [15]; [25]
  Plant response rating, Soybean: 60
Soybean [15]; [26]
  Plant response rating, Soybean: 90
Ragweed [16]; [23]
  Ragweed plant response rating: 0
Ragweed [16]; [24]
  Plant response rating, Ragweed: 30
Corn [17]; [25]
  Plant response rating, Corn: 0
Corn [17]; [26]
  Plant response rating, Corn: 0
Kochia [18]; [25]
  Plant response rating, Kochia: 50
Kochia [18]; [26]
  Plant response rating, Kochia: 100
Blackgrass [19]; [23]
  Blackgrass plant response rating: 0
Blackgrass [19]; [24]
  Plant response rating, Blackgrass: 50
foxtail, giant [20]; [25]
  Plant response rating, Foxtail, Giant: 100
foxtail, giant [20]; [26]
  Plant response rating, Foxtail, Giant: 100
Ragweed [21]; [25]
  Plant response rating, Ragweed: 0
Ragweed [21]; [26]
  Plant response rating, Ragweed: 40
Kochia [22]; [23]
  Kochia plant response rating: 80
Kochia [22]; [24]
  Plant response rating, Kochia: 100
